Results on two molecules are retold here after patent US6677450B2, “Topoisomerase inhibitors” (Bristol-Myers Squibb Company, priority 2000, dated 2004).

A value given as a limit tells only on which side of the number the result lay.

Data set [1] deals with T1, purified human topoisomerase I (Homo sapiens, UniProt P11387).
T1 construct: purchased Topogen
T1 sequence (P11387 1-765): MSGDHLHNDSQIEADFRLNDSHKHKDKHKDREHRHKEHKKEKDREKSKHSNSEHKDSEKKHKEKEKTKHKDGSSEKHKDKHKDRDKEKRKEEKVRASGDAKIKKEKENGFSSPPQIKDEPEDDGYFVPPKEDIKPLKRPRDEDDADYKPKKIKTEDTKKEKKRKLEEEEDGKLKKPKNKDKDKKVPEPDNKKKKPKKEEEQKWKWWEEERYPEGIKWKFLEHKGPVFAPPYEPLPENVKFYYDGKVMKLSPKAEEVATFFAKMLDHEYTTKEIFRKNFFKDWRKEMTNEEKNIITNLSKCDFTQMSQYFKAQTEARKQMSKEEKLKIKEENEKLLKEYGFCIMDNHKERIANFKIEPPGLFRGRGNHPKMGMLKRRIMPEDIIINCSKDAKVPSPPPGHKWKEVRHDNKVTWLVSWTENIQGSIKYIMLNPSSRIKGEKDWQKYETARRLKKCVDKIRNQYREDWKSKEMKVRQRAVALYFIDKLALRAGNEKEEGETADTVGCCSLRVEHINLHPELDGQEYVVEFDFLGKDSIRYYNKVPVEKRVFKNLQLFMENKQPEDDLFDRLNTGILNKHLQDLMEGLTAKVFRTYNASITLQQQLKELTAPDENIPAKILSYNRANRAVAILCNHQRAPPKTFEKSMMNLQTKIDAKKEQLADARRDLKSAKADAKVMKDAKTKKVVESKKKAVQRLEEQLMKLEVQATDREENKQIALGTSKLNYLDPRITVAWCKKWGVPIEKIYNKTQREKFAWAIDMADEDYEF
The data set can be described thus: Topoisomerase I activity (in vitro): compound-induced, topoisomerase I-mediated single strand breaks in PM2 DNA. The format is biochemical. To be noted: 30 minutes at 37° C., agarose gel densitometry, read-out: EC50 (median effective concentration for inducing topoisomerase I-mediated single strand breaks in DNA). Here is the method: Topoisomerase I Activity (In Vitro)
Topoisomerase I activity was measured as described below: The procedure for assaying compound-induced, topoisomerase I-mediated single strand breaks in DNA was essentially that described by Hsiang, et al., (J. Biol Chem. 1985, 260, 14873-14878). Samples dissolved in 100% DMSO as either 10 μM or 10 mg/ml solutions, unless otherwise stated, were diluted in Tris-EDTA buffer. Marine bacteriophage PM2 DNA (Boehringer Mannheim) was also diluted in Tris-EDTA buffer to a concentration of 0.02 μg/μl. Different dilutions of the compound being evaluated were mixed with diluted DNA and this mixture was added to 1000 unit (one unit of enzyme activity is defined as the amount capable of relaxing 100 ng of supercoiled DNA in approximately 30 minutes at 37° C.) aliquots of purified human topoisomerase I (Topogen) in 2× reaction buffer to start the reaction. The compound-DNA-enzyme mixture was incubated for 30 minutes at 37° C. before stopping the reaction with warm stop buffer containing sodium dodecyl sulfate and proteinase K (Sigma). These mixtures were allowed to incubate at 37° C. for another 10 minutes, at which time the mixtures were removed from the waterbath and extracted with a 24:1 mixture of chloroform/isoamyl alcohol. Following centrifugation, aliquots of the aqueous phases were placed in wells of a 0.9% agarose (SeaKem) gel in Tris-borate buffer containing 0.5 μg/ml of ethidium bromide and subjected to electrophoresis for 15 hours to separate the different topological isomers and nicked and broken DNAs. After destaining the gel in water, the ethidium bromide stained DNA reaction products were visualized by exposing the gel to UV irradiation. Negatives of the photographs of the irradiated gels were scanned with a densitometer and areas under the peaks were calculated in order to obtain percent single strand DNA break formation for each sample. A median effective concentration (EC50) was obtained for each compound by interpolation between points of the resulting dose-effect curve which defines the potency of the compound for its effect in inducing topoisomerase I-mediated single strand breaks in DNA.
The topoisomerase I activity for certain compounds of the present invention is shown below in Table I.

Another data set concerns murine P388 cell line. The data set can be described thus: In vitro cell-based cytotoxicity: proliferation inhibition, XTT tetrazolium assay. The following applies: Mus musculus; P388 cells, 72 h at 37° C., XTT absorbance at 450 nm; read-out: IC50 (drug concentration required to inhibit cell proliferation to 50% of untreated control cells). The procedure: In Vitro Cell-Based Cytotoxicity Activity
The proliferation inhibition activity against murine P388 cell line was measured as follows. Evaluation of a soluble tetrazolium/formazan assay for cell growth and drug sensitivity in culture, using human and other tumor cell lines, was done according to the procedure described in Cancer Res. 1988, 48, 4827-4833. Cells were plated at 4000 cells/well in 96 well microtiter plates and 24 h later drugs were added and serially diluted. The cells were incubated at 37° C. for 72 h, at which time a tetrazolium dye, XTT, containing phenazine methosulfate was added. A dehydrogenase enzyme in live cells reduced the XTT to a form that absorbs light at 450 nm, which could be quantitated spectrophotometrically. The greater the absorbance the greater the number of live cells. The results are expressed as an IC50, which is the drug concentration required to inhibit cell proliferation (i.e., absorbance at 450 nm) to 50% of that of untreated control cells.
(Formazan colour is commonly taken as a measure of viable cells.)

In the case of `O=C1NC(=O)c2c1c1c3ccc(F)cc3n3c1c1c2c2ccc(F)cc2n1C1OC(C3)C(F)C(O)C1O` [Example 11, 2,10-Difluoro-12,13-[1,6-(4-deoxy-4-fluoro-β-D-glucopyranosyl)]-6,7,12,13-tetrahydro(5H)indolo[2,3-a]pyrrolo[3,4-c]carbazole-5,7-dione], the melting point is 315 °C (dec.). The EC50 in data set [1] is 3.3 µM. Also, the IC50 in the data set with murine P388 cell line worked out at 0.021 µM.
On to `O=C1NC(=O)c2c1c1c3ccc(F)cc3n3c1c1c2c2ccc(F)cc2n1[C@@H]1O[C@H](CO)[C@@H](O)[C@H](O)[C@@H]13` [Example 24, 2,10-Difluoro-12,13-[1,2-β-D-glucopyranosyl]-6,7,12,13-tetrahydro(5H)-indolo-[2,3-a]pyrrolo[3,4-c]carbazole-5,7-dione], for which the melting point is greater than 300 °C. In data set [1], the EC50 is greater than 100 µM. Besides, the IC50 in the data set with murine P388 cell line was 1.15 µM.

By melting point is commonly meant the temperature, or range, at which the solid turns liquid.
